Patent US20230167088A1, “1-PYRAZINYLPYRAZOLYL-3-OXYALKYL ACIDS AND THEIR DERIVATIVES, AND THEIR USE FOR CONTROL OF UNDESIRED PLANT GROWTH” (BAYER AKTIENGESELLSCHAFT, priority 2020, published 2023)

Tests used:
PHBPU = assay: Herbicidal pre-emergence action 2a (greenhouse pots, visual scoring); type: in vivo, Pharbitis purpurea; details: dosage 320 g/ha, visual scoring after about 3 weeks vs untreated controls
How it was run: (§1)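 Pre-emergence soil-surface spray: WP/EC, 0.5% additive, 600 l/ha water, 320 and/or 80 g/ha. Greenhouse ~3 wk. Visual % damage vs untreated (100% = plants dead, 0% = like control).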

ABUTH [1] = assay: as above; type: in vivo, Abutilon theophrasti; details: dosage 320 g/ha, visual scoring after about 3 weeks vs untreated controls
How it was run: as §1

ABUTH [2] = assay: Herbicidal post-emergence action 1b (twin sowing, 1280 g/ha); type: in vivo, Abutilon theophrasti; details: dosage 1280 g/ha, visual rating about 3 weeks after treatment
How it was run: (§2)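 Post-emergence foliar spray on one-leaf weeds grown two species per pot in sandy loam; ~3 weeks later, visual rating from 0% (as control) to 100% (plants died).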

DIGSA [3] = assay: Herbicidal pre-emergence action 2b (doubly sown, 1280 g/ha); type: in vivo, Digitaria sanguinalis; details: doubly sown pots, dosage 1280 g/ha, visual scoring after about 3 weeks
How it was run: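 Seeds are placed in sandy loam and covered, then the formulated compound is applied to the covering soil in water equivalent to 600 litres per hectare with 0.5% additive. Pots stay in the greenhouse under good growth conditions. Activity is rated visually as a percentage of untreated controls after about three weeks.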

HORMU [4] = assay: Herbicidal pre-emergence action 2a (greenhouse pots, visual scoring); type: in vivo, Hordeum murinum; details: dosage 320 g/ha, visual scoring after about 3 weeks vs untreated controls
Text: (§3) [table] a) Seeds of monocotyledonous and dicotyledonous weed plants and crop plants are placed in plastic or organic plant pots and covered with soil. The compounds of the invention, formulated in the form of wettable powders (WP) or as emulsion concentrates (EC), are then applied onto the surface of the covering soil as aqueous suspension or emulsion with addition of 0.5% additive at a water application rate of 600 1/ha (converted). After the treatment, the pots are placed in a greenhouse and kept under good growth conditions for the trial plants. After about 3 weeks, the effect of the preparations is scored visually in comparison with untreated controls as percentages. For example, 100% activity=the plants have died, 0% activity=like control plants. Tables B1 to B15 below show the effects of selected compounds of the general formula (I) according to Tables 1 and 2 on various harmful plants and an application rate corresponding to 320 g/ha and/or 80 g/ha, which were obtained by the experimental procedure mentioned above.

HORMU [5] = assay: Herbicidal post-emergence action 1a (greenhouse pots, visual rating); type: in vivo, Hordeum murinum; details: rated visually about 3 weeks after treatment, 100% = plants have died, 0% = like control plants
Procedure: (§4) [table] a) Seeds of monocotyledonous and dicotyledonous weeds and crop plants are placed in sandy loam in plastic or organic plant pots, covered with soil and cultivated in a greenhouse under controlled growth conditions. 2 to 3 weeks after sowing, the test plants are treated at the one-leaf stage. The compounds of the invention, formulated in the form of wettable powders (WP) or as emulsion concentrates (EC), are then sprayed onto the green parts of the plants as aqueous suspension or emulsion with addition of 0.5% additive at a water application rate of 600 1/ha (converted). After the test plants have been kept in the greenhouse under optimum growth conditions for about 3 weeks, the activity of the preparations is rated visually in comparison to untreated controls. For example, 100% activity=the plants have died, 0% activity=like control plants. Tables A1 to A15 below show the effects of selected compounds of the general formula (I) according to Tables 1 and 2 on various harmful plants and an application rate corresponding to 320 g/ha and/or 80 g/ha, which were obtained by the experimental procedure mentioned above.

STEME [6] = assay: as above; type: in vivo, Stellaria media; details: rated visually about 3 weeks after treatment, 100% = plants have died, 0% = like control plants
Procedure: as §4

DIGSA [7] = assay: Herbicidal post-emergence action 1b (twin sowing, 1280 g/ha); type: in vivo, Digitaria sanguinalis; details: dosage 1280 g/ha, visual rating about 3 weeks after treatment
How it was run: as §2

STEME [8] = assay: Herbicidal pre-emergence action 2a (greenhouse pots, visual scoring); type: in vivo, Stellaria media; details: dosage 320 g/ha, visual scoring after about 3 weeks vs untreated controls
Text: as §3

Structure (SMILES) | Pre-emergence action against PHBPU in % (PHBPU) [%] | Post-emergence action at 1280 g/ha against ABUTH in % (ABUTH [2]) [%] | Pre-emergence action at 1280 g/ha against DIGSA in % (DIGSA [3]) [%] | Post-emergence action against STEME in % (STEME [6]; Dosage 320 g/ha) [%] | Post-emergence action at 1280 g/ha against DIGSA in % (DIGSA [7]) [%] | further results
C[C@@H](Oc1nn(-c2cnccn2)c(-c2cccc(F)c2)c1Br)C(=O)O [Example I-48] | 90 | 90 | 100 |  |  | Pre-emergence action against ABUTH in % (ABUTH [1]): 100%
CCOC(=O)COc1nn(-c2cnccn2)c(-c2ccc(F)nc2)c1Br [Example I-52, ethyl {[4-bromo-5-(6-fluoropyridin-3-yl)-1-(pyrazin-2-yl)-1H-pyrazol-3-yl]oxy}acetate] | 100 |  | 100 |  |  | 
COC(=O)C(C)Oc1nn(-c2cnccn2)c(-c2ccnc(F)c2)c1Br (racemic) [Example I-10] |  |  |  | 90 |  | Pre-emergence action against HORMU in % (HORMU [4]): 80%; Post-emergence action against HORMU in % (HORMU [5]; Dosage 80 g/ha): 80%; Post-emergence action against HORMU in % (HORMU [5]; Dosage 320 g/ha): 80%
COC(=O)[C@@H](C)Oc1nn(-c2cnccn2)c(-c2ccc(F)c(F)c2)c1C#N [Example I-46] |  | 90 | 100 |  | 100 | Pre-emergence action against ABUTH in % (ABUTH [1]): 80%
COC(=O)COc1nn(-c2cnccn2)c(-c2ccc(F)c(F)c2)c1Br [Example I-15] | 90 |  |  |  |  | 
COC(=O)COc1nn(-c2cnccn2)c(-c2cncc(F)c2)c1Br [Example I-07] | 90 |  |  | 90 |  | Pre-emergence action against HORMU in % (HORMU [4]): 90%; Post-emergence action against HORMU in % (HORMU [5]; Dosage 80 g/ha): 80%; Post-emergence action against HORMU in % (HORMU [5]; Dosage 320 g/ha): 90%; Post-emergence action against STEME in % (STEME [6]; Dosage 80 g/ha): 90%; Pre-emergence action against STEME in % (STEME [8]): 100%
COC(=O)C(C)Oc1nn(-c2cnccn2)c(-c2ccc(F)nc2)c1Br (racemic) [Example I-12] |  |  |  | 90 |  | Pre-emergence action against HORMU in % (HORMU [4]): 90%; Post-emergence action against HORMU in % (HORMU [5]; Dosage 80 g/ha): 90%; Post-emergence action against HORMU in % (HORMU [5]; Dosage 320 g/ha): 90%; Post-emergence action against STEME in % (STEME [6]; Dosage 80 g/ha): 80%; Pre-emergence action against STEME in % (STEME [8]): 90%
COC(=O)[C@@H](C)Oc1nn(-c2cnccn2)c(-c2cccc(F)c2)c1Br [Example I-20] |  | 90 |  |  |  | 
COC(=O)C(C)Oc1nn(-c2cnccn2)c(-c2ccnc(F)c2)c1Cl (racemic) [Example I-05] | 80 | 90 |  | 80 |  | Pre-emergence action against HORMU in % (HORMU [4]): 90%; Post-emergence action against HORMU in % (HORMU [5]; Dosage 320 g/ha): 90%; Pre-emergence action against STEME in % (STEME [8]): 100%
COC(=O)C(C)Oc1nn(-c2cnccn2)c(-c2ccc(F)c(F)c2)c1Br (racemic) [Example I-16] |  | 90 |  |  |  | 
COC(=O)[C@@H](C)Oc1nn(-c2cnccn2)c(-c2ccnc(F)c2)c1Br [Example I-34] |  |  | 100 |  | 100 | 
CCOC(=O)COc1nn(-c2cnccn2)c(-c2ccc(F)nc2)c1Cl [Example I-53] |  | 90 | 100 |  | 100 | 
COC(=O)[C@@H](C)Oc1nn(-c2cnccn2)c(-c2ccc(F)c(F)c2)c1Br [Example I-45] |  | 90 | 100 |  | 100 | 
C[C@H](Oc1nn(-c2cnccn2)c(-c2cncc(F)c2)c1Br)C(=O)O [Example I-37] |  | 90 | 100 |  | 100 | 
COC(=O)[C@@H](C)Oc1nn(-c2cnccn2)c(-c2cncc(F)c2)c1C#N [Example I-40] |  |  | 100 |  | 90 | 
COC(=O)[C@@H](C)Oc1nn(-c2cnccn2)c(-c2ccc(F)nc2)c1Cl [Example I-36] |  | 90 | 100 |  | 100 | 
COC(=O)[C@@H](C)Oc1nn(-c2cnccn2)c(-c2cncc(F)c2)c1Br [Example I-39] |  |  | 100 |  | 100 | Pre-emergence action against ABUTH in % (ABUTH [1]): 90%
COC(=O)C(C)Oc1nn(-c2cnccn2)c(-c2cncc(F)c2)c1Br (racemic) [Example I-08] | 90 |  |  | 90 |  | Pre-emergence action against HORMU in % (HORMU [4]): 100%; Pre-emergence action against ABUTH in % (ABUTH [1]): 80%; Post-emergence action against HORMU in % (HORMU [5]; Dosage 80 g/ha): 80%; Post-emergence action against HORMU in % (HORMU [5]; Dosage 320 g/ha): 90%; Post-emergence action against STEME in % (STEME [6]; Dosage 80 g/ha): 90%; Pre-emergence action against STEME in % (STEME [8]): 100%
CCOC(=O)COc1nn(-c2cnccn2)c(-c2ccccc2)c1Br [Example I-01] |  |  |  | 90 |  | Pre-emergence action against STEME in % (STEME [8]): 80%
COC(=O)COc1nn(-c2cnccn2)c(-c2ccc(F)nc2)c1Br [Example I-11] | 90 | 90 | 90 |  | 100 | 
